Source: the kinase profiling compilation of Christmann-Franck et al. (2016)

Legend:
Assay in all cases: KINOMEscan competition binding
[1] = target: ACVR1 (human) (UniProt Q04771)
[2] = target: AURKA (human) (UniProt O14965)
[3] = target: BLK (human) (UniProt P51451)
[4] = target: CAMK2D (human) (UniProt Q13557)
[5] = target: CDK19 (human) (UniProt Q9BWU1)
[6] = target: DCLK1 (human) (UniProt O15075)
[7] = target: DMPK (human) (UniProt Q09013)
[8] = system: EGFR (human), P00533 [A750P; 747-749 del]
[9] = system: EGFR (human), P00533 [G719S]
[10] = target: EIF2AK2 (human) (UniProt P19525)
[11] = target: EPHB1 (human) (UniProt P54762)
[12] = target: FGFR1 (human) (UniProt P11362)
[13] = target: FGFR4 (human) (UniProt P22455)
[14] = system: FLT3 (human), P36888 [R834Q]
[15] = target: HIPK4 (human) (UniProt Q8NE63)
[16] = target: IKBKB (human) (UniProt O14920)
[17] = target: JAK2 JH1 catalytic (human) (UniProt O60674)
[18] = system: KIT (human), P10721 [A829P]
[19] = system: KIT (human), P10721 [V559D/V654A]
[20] = target: MAK (human) (UniProt P20794)
[21] = target: MAP2K5 (human) (UniProt Q13163)
[22] = target: MAP2K6 (human) (UniProt P52564)
[23] = target: MAP3K15 (human) (UniProt Q6ZN16)
[24] = target: MAP4K4 (human) (UniProt O95819)
[25] = target: MAP4K5 (human) (UniProt Q9Y4K4)
[26] = target: MAPK4 (human) (UniProt P31152)
[27] = target: MYO3A (human) (UniProt Q8NEV4)
[28] = target: NEK2 (human) (UniProt P51955)
[29] = target: PAK1 (human) (UniProt Q13153)
[30] = system: PIK3CA (human), P42336 [E545A]
[31] = target: PLK3 (human) (UniProt Q9H4B4)
[32] = target: PRKD3 (human) (UniProt O94806)
[33] = target: PRPF4B (human) (UniProt Q13523)
[34] = target: PTK2B (human) (UniProt Q14289)
[35] = target: RIOK1 (human) (UniProt Q9BRS2)
[36] = target: SIK2 (human) (UniProt Q9H0K1)
[37] = target: TAOK1 (human) (UniProt Q7L7X3)
[38] = target: TNIK (human) (UniProt Q9UKE5)
[39] = target: TNK2 (human) (UniProt Q07912)
[40] = target: TRPM6 (human) (UniProt Q9BX84)
[41] = target: TXK (human) (UniProt P42681)
[42] = target: YES1 (human) (UniProt P07947)

DMPK (human), sequence (Q09013 whole entry, looked up): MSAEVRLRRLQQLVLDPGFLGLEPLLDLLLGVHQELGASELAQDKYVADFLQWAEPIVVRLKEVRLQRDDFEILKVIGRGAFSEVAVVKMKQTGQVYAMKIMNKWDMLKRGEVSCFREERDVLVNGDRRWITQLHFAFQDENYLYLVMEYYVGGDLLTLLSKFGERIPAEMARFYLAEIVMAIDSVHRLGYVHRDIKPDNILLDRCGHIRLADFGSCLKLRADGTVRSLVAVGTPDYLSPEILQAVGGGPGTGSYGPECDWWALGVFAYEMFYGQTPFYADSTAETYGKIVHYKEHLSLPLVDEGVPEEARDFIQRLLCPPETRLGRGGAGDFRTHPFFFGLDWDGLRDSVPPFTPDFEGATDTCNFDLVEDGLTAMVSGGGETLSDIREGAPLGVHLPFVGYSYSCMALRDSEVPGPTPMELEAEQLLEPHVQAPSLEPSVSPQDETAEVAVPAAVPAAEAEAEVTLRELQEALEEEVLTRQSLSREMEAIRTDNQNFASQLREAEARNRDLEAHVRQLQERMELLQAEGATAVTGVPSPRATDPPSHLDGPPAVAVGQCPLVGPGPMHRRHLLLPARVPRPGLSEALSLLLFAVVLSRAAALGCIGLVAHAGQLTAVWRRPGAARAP
CDK19 (human), sequence (Q9BWU1 whole entry, looked up): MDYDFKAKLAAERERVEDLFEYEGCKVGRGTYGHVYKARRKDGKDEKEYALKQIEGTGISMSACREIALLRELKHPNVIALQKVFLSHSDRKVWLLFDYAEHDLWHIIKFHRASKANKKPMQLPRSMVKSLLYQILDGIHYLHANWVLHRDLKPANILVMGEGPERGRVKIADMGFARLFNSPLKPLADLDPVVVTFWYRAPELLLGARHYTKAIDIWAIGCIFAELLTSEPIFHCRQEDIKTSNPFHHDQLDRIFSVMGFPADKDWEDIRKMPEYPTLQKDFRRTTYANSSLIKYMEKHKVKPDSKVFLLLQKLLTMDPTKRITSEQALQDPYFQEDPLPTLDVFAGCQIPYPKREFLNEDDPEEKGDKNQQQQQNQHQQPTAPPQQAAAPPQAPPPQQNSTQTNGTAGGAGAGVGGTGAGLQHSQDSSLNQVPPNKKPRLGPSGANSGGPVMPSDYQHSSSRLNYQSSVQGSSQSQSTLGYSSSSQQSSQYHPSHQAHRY
AURKA (human), sequence (O14965 whole entry, looked up): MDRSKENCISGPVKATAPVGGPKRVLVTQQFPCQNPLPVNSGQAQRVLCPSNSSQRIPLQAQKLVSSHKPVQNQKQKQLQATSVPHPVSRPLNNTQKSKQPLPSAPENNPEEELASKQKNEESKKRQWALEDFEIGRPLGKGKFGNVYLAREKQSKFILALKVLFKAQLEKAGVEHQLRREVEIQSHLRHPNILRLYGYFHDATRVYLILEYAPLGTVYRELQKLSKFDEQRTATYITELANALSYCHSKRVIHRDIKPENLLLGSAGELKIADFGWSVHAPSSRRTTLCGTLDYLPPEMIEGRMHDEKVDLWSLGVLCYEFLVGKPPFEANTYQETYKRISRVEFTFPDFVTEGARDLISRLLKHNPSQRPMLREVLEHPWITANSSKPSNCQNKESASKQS
MAP2K5 (human), sequence (Q13163 whole entry, looked up): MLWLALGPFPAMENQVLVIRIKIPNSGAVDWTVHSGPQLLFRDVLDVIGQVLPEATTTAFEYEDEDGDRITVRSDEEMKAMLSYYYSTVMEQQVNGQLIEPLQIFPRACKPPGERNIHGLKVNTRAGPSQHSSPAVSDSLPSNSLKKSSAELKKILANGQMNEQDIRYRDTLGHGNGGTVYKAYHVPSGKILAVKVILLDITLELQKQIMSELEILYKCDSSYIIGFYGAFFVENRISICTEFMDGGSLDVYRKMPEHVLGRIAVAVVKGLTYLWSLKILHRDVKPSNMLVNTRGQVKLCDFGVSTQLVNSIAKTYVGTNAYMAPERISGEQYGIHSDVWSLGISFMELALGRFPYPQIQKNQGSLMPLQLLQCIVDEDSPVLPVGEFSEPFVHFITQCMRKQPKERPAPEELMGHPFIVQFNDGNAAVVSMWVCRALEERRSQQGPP
HIPK4 (human), sequence (Q8NE63 whole entry, looked up): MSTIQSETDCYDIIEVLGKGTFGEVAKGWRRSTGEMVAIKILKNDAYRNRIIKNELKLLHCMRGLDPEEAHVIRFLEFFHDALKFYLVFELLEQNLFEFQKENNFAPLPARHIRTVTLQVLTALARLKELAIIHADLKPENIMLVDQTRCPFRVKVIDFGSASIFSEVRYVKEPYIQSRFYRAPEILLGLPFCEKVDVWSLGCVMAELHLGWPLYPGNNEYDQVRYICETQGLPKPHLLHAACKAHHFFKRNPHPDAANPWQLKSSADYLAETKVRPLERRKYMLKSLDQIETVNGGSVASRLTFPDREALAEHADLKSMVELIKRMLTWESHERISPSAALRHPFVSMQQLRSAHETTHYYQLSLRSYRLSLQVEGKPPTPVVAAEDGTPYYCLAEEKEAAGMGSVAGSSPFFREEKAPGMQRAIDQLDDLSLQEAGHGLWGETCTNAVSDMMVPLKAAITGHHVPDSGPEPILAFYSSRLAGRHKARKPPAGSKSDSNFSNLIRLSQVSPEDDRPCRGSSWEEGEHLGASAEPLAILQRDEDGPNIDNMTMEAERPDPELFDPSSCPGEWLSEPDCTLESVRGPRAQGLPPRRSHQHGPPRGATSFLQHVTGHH
MAP2K6 (human), sequence (P52564 whole entry, looked up): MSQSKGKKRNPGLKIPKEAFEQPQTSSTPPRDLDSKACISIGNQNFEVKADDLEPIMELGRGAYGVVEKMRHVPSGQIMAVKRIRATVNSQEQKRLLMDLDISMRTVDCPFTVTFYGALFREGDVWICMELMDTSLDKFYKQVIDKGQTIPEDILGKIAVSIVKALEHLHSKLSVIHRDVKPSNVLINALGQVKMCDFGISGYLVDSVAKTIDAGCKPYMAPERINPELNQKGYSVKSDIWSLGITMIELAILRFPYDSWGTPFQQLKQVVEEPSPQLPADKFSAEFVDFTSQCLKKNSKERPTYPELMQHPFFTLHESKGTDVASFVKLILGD
EIF2AK2 (human), sequence (P19525 whole entry, looked up): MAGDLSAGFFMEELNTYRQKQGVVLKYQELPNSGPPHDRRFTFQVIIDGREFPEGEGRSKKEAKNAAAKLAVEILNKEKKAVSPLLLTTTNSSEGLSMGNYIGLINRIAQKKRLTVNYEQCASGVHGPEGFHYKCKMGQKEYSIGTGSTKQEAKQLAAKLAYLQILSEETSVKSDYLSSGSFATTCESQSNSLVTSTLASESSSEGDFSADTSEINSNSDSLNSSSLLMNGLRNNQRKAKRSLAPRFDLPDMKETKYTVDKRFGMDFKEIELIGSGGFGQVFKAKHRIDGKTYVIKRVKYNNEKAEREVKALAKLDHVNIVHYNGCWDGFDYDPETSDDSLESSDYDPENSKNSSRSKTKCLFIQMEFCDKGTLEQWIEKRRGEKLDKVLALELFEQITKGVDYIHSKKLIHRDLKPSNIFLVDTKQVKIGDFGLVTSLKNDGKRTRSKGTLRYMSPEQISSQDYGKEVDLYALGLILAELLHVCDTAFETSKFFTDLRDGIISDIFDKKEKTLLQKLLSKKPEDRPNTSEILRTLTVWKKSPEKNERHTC
TNIK (human), sequence (Q9UKE5 whole entry, looked up): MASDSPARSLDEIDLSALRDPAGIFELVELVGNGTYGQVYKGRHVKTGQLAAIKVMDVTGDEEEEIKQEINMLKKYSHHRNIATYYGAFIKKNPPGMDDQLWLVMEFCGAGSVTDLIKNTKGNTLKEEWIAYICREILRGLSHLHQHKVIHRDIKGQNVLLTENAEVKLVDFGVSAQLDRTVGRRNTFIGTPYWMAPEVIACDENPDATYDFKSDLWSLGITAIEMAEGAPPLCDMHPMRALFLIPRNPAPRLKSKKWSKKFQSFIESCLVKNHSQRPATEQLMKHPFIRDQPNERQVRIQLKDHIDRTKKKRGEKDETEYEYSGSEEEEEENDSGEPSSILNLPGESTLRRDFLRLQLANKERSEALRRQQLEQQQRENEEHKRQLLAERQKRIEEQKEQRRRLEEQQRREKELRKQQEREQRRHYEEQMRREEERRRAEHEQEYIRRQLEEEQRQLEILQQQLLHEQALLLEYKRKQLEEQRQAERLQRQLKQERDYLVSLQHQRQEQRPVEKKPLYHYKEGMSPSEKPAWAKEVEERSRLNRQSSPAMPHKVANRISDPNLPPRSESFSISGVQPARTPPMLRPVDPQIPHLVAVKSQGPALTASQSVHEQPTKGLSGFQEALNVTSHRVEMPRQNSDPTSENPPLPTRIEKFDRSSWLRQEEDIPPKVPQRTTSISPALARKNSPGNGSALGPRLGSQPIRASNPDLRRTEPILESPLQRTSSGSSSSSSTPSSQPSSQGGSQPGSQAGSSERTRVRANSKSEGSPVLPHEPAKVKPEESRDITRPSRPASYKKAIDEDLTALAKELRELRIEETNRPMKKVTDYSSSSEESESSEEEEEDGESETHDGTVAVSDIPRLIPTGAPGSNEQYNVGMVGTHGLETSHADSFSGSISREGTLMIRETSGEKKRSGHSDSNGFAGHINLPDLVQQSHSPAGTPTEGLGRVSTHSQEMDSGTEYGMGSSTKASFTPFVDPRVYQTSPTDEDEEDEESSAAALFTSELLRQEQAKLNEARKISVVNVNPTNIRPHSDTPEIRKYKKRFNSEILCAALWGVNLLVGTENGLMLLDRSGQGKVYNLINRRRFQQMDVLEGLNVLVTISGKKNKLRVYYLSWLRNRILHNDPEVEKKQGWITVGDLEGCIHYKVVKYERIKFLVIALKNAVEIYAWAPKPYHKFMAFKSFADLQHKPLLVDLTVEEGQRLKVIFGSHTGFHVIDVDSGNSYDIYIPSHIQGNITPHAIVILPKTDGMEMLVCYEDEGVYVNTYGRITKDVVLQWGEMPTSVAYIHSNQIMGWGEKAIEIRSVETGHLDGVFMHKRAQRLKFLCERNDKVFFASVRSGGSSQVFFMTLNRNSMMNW

**Q.** What does the source list for `Cc1ccc(NC(=O)c2ccc(NC(=O)/C=C/CN(C)C)cc2)cc1Nc1nccc(-c2cccnc2)n1`?
**A.** kinase still bound, per cent of control ([1]; compound 10.0 µM): 100%; kinase still bound, per cent of control ([2]; compound 10.0 µM): 100%; kinase still bound, per cent of control ([3]; compound 10.0 µM): 60%; kinase still bound, per cent of control ([4]; compound 10.0 µM): 100%; kinase still bound, per cent of control ([5]; compound 10.0 µM): 32%; kinase still bound, per cent of control ([6]; compound 10.0 µM): 84%; kinase still bound, per cent of control ([7]; compound 10.0 µM): 100%; kinase still bound, per cent of control ([8]; compound 10.0 µM): 59%; kinase still bound, per cent of control ([9]; compound 10.0 µM): 61%; kinase still bound, per cent of control ([10]; compound 10.0 µM): 100%; kinase still bound, per cent of control ([11]; compound 10.0 µM): 100%; kinase still bound, per cent of control ([12]; compound 10.0 µM): 87%; kinase still bound, per cent of control ([13]; compound 10.0 µM): 100%; kinase still bound, per cent of control ([14]; compound 10.0 µM): 56%; kinase still bound, per cent of control ([15]; compound 10.0 µM): 18%; kinase still bound, per cent of control ([16]; compound 10.0 µM): 70%; kinase still bound, per cent of control ([17]; compound 10.0 µM): 39%; kinase still bound, per cent of control ([18]; compound 10.0 µM): 17%; kinase still bound, per cent of control ([19]; compound 10.0 µM): 3.4%; kinase still bound, per cent of control ([20]; compound 10.0 µM): 100%; kinase still bound, per cent of control ([21]; compound 10.0 µM): 66%; kinase still bound, per cent of control ([22]; compound 10.0 µM): 100%; kinase still bound, per cent of control ([23]; compound 10.0 µM): 92%; kinase still bound, per cent of control ([24]; compound 10.0 µM): 78%; kinase still bound, per cent of control ([25]; compound 10.0 µM): 93%; kinase still bound, per cent of control ([26]; compound 10.0 µM): 100%; kinase still bound, per cent of control ([27]; compound 10.0 µM): 100%; kinase still bound, per cent of control ([28]; compound 10.0 µM): 100%; kinase still bound, per cent of control ([29]; compound 10.0 µM): 89%; kinase still bound, per cent of control ([30]; compound 10.0 µM): 100%; kinase still bound, per cent of control ([31]; compound 10.0 µM): 46%; kinase still bound, per cent of control ([32]; compound 10.0 µM): 100%; kinase still bound, per cent of control ([33]; compound 10.0 µM): 100%; kinase still bound, per cent of control ([34]; compound 10.0 µM): 100%; kinase still bound, per cent of control ([35]; compound 10.0 µM): 34%; kinase still bound, per cent of control ([36]; compound 10.0 µM): 80%; kinase still bound, per cent of control ([37]; compound 10.0 µM): 46%; kinase still bound, per cent of control ([38]; compound 10.0 µM): 43%; kinase still bound, per cent of control ([39]; compound 10.0 µM): 98%; kinase still bound, per cent of control ([40]; compound 10.0 µM): 52%; kinase still bound, per cent of control ([41]; compound 10.0 µM): 94%; kinase still bound, per cent of control ([42]; compound 10.0 µM): 100%

**Q.** What does the source list for `Cc1cc(NC(=O)c2cccc(NC(=O)/C=C/CN(C)C)c2)ccc1Nc1nccc(-c2cccnc2)n1`?
**A.** kinase still bound, per cent of control ([1]; compound 1.0 µM): 100%; kinase still bound, per cent of control ([2]; compound 1.0 µM): 100%; kinase still bound, per cent of control ([3]; compound 1.0 µM): 65%; kinase still bound, per cent of control ([4]; compound 1.0 µM): 100%; kinase still bound, per cent of control ([5]; compound 1.0 µM): 62%; kinase still bound, per cent of control ([6]; compound 1.0 µM): 100%; kinase still bound, per cent of control ([7]; compound 1.0 µM): 63%; kinase still bound, per cent of control ([8]; compound 1.0 µM): 84%; kinase still bound, per cent of control ([9]; compound 1.0 µM): 90%; kinase still bound, per cent of control ([10]; compound 1.0 µM): 82%; kinase still bound, per cent of control ([11]; compound 1.0 µM): 100%; kinase still bound, per cent of control ([12]; compound 1.0 µM): 94%; kinase still bound, per cent of control ([13]; compound 1.0 µM): 100%; kinase still bound, per cent of control ([14]; compound 1.0 µM): 100%; kinase still bound, per cent of control ([15]; compound 1.0 µM): 4%; kinase still bound, per cent of control ([16]; compound 1.0 µM): 99%; kinase still bound, per cent of control ([17]; compound 1.0 µM): 100%; kinase still bound, per cent of control ([18]; compound 1.0 µM): 69%; kinase still bound, per cent of control ([19]; compound 1.0 µM): 81%; kinase still bound, per cent of control ([20]; compound 1.0 µM): 100%; kinase still bound, per cent of control ([21]; compound 1.0 µM): 67%; kinase still bound, per cent of control ([22]; compound 1.0 µM): 95%; kinase still bound, per cent of control ([23]; compound 1.0 µM): 82%; kinase still bound, per cent of control ([24]; compound 1.0 µM): 92%; kinase still bound, per cent of control ([25]; compound 1.0 µM): 100%; kinase still bound, per cent of control ([26]; compound 1.0 µM): 81%; kinase still bound, per cent of control ([27]; compound 1.0 µM): 81%; kinase still bound, per cent of control ([28]; compound 1.0 µM): 100%; kinase still bound, per cent of control ([29]; compound 1.0 µM): 100%; kinase still bound, per cent of control ([30]; compound 1.0 µM): 95%; kinase still bound, per cent of control ([31]; compound 1.0 µM): 66%; kinase still bound, per cent of control ([32]; compound 1.0 µM): 80%; kinase still bound, per cent of control ([33]; compound 1.0 µM): 100%; kinase still bound, per cent of control ([34]; compound 1.0 µM): 87%; kinase still bound, per cent of control ([35]; compound 1.0 µM): 100%; kinase still bound, per cent of control ([36]; compound 1.0 µM): 88%; kinase still bound, per cent of control ([37]; compound 1.0 µM): 67%; kinase still bound, per cent of control ([38]; compound 1.0 µM): 56%; kinase still bound, per cent of control ([39]; compound 1.0 µM): 90%; kinase still bound, per cent of control ([40]; compound 1.0 µM): 98%; kinase still bound, per cent of control ([41]; compound 1.0 µM): 96%; kinase still bound, per cent of control ([42]; compound 1.0 µM): 86%
